The text below walks through data of patent US10513523B2, “Imidazopyrazines and pyrazolopyrimidines and their use as AMPA receptor modulators” (Janssen Pharmaceutica NV, priority 2015, dated 2019).

SMILES strings stand for the structures. Some results are limits rather than exact numbers.

Sequence of GluA1o-γ8 (GRIA1o-CACNG8 fusion construct; TARP γ8 dependent AMPA receptor) (P42261 other isoform, or with tags, fused parts or gaps): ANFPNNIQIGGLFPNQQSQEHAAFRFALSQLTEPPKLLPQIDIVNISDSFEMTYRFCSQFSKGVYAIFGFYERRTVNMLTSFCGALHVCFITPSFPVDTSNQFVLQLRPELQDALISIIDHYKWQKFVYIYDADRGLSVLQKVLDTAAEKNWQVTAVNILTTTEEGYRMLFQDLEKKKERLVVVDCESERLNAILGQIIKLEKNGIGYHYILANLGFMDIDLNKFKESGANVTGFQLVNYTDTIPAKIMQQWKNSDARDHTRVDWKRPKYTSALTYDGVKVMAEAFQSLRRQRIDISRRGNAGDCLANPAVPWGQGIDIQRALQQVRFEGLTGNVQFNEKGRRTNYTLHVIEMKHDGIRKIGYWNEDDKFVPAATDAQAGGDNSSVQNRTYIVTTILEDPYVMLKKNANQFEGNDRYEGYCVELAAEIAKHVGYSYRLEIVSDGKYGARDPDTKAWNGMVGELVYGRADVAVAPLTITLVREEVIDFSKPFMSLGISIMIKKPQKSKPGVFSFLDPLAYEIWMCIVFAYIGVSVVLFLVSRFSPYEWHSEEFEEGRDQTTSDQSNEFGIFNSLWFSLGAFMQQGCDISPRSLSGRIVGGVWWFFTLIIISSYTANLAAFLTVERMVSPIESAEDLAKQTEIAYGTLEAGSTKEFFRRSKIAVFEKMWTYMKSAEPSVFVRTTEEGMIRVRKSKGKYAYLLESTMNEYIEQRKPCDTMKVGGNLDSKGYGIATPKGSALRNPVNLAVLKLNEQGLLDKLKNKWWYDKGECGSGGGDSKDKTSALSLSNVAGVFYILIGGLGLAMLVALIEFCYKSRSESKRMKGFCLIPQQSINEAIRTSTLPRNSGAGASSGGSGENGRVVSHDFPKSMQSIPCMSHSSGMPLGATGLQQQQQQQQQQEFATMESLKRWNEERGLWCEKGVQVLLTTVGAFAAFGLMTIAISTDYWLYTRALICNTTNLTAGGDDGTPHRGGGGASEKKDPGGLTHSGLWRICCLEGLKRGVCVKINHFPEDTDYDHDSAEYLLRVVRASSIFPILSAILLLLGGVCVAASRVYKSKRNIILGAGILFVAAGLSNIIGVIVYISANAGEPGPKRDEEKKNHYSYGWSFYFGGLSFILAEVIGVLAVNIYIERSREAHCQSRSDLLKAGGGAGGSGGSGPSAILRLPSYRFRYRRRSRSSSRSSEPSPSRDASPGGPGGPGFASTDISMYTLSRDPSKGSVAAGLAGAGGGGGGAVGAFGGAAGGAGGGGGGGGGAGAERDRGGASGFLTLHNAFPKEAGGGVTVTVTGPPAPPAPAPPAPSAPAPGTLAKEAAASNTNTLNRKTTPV

This assay concerns the target GluA1o-γ8 (GRIA1o-CACNG8 fusion construct; TARP γ8 dependent AMPA receptor) (Homo sapiens (Human), UniProt P42261+Q8WXS5). Kind of assay: Calcium flux assay (FLIPR), inhibition of glutamate response of GluA1o-γ8 channel. It counts as cell-based. The conditions noted are these: HEK293 cells stably expressing GRIA1o-CACNG8 fusion; 15 μM glutamate; pIC50 = negative log of IC50 in molar; read-out: GluR1-γ8 (pIC50) (converted). The essentials:
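Potency is the midpoint of a four-parameter logistic fit to control-normalized FLIPR calcium responses elicited by 15 μM glutamate. Stable HEK293 cells carried a fused GluA1o-γ8 construct and were preincubated with compound and calcium dye in pH 7.4 HEPES buffer.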
(In general: Calcium flux is commonly read through the fluorescence of an indicator in the cells.)
As to `O=C1Cc2cc(-c3c(C(=O)Nc4ccccc4)nc4c(N5CCOCC5)nccn34)ccc2N1` [Example 137, 8-Morpholino-3-(2-oxoindolin-5-yl)-N-phenylimidazo[1,2-a]pyrazine-2-carboxamide], the IC50 was 6.31 nM.
In the case of `O=C(Nc1ccccc1)c1nc2c(N3CCOCC3)nccn2c1-c1ccc(O)cc1` [Example 138, 3-(4-Hydroxyphenyl)-8-morpholino-N-phenyl-imidazo[1,2-a]pyrazine-2-carboxamide], the IC50 is 20 nM.
With `O=C(NCc1ccccc1)c1nc2c(N3CCOCC3)nccn2c1-c1ccc2[nH]c(=O)[nH]c2c1` [Example 139, N-Benzyl-8-morpholino-3-(2-oxo-1,3-dihydrobenzimidazol-5-yl)imidazo[1,2-a]pyrazine-2-carboxamide], the IC50 was 25.1 nM.
As to `O=C(Nc1ccccc1)c1nc2c(N3CCOCC3)nccn2c1-c1ccc2[nH]c(=O)[nH]c2c1` [Example 140, 8-Morpholino-3-(2-oxo-1,3-dihydrobenzimidazol-5-yl)-N-phenyl-imidazo[1,2-a]pyrazine-2-carboxamide], the IC50 is 20 nM.
In the case of `CN(C)c1nccn2c(-c3ccc4c(c3)CC(=O)N4)c(-c3ccc(F)cc3)nc12` [Example 141, 5-[8-(Dimethylamino)-2-(4-fluorophenyl)imidazo[1,2-a]pyrazin-3-yl]indolin-2-one], the IC50 is 0.794 nM.
For `O=C1Cc2cc(-c3c(C(=O)NCc4ccccc4)nc4c(N5CCOCC5)nccn34)ccc2N1` [Example 142, N-Benzyl-8-morpholino-3-(2-oxoindolin-5-yl)imidazo[1,2-a]pyrazine-2-carboxamide] the value was 31.6 nM; for `O=C1CN(c2nccn3c(-c4ccc5c(c4)CC(=O)N5)c(C(=O)Nc4ccccc4)nc23)CCN1` [Example 143, 3-(2-Oxoindolin-5-yl)-8-(3-oxopiperazin-1-yl)-N-phenyl-imidazo[1,2-a]pyrazine-2-carboxamide], 20 nM.
For `CN(C)c1nccn2c(-c3ccc4c(c3)CC(=O)N4)c(C(=O)Nc3ccccc3)nc12` [Example 144, 8-(Dimethylamino)-3-(2-oxoindolin-5-yl)-N-phenyl-imidazo[1,2-a]pyrazine-2-carboxamide] the value was 6.31 nM.
Consider `CN(C(=O)c1nc2c(N3CCOCC3)nccn2c1-c1ccc2[nH]c(=O)[nH]c2c1)c1ccccc1` [Example 145, N-Methyl-8-morpholino-3-(2-oxo-1,3-dihydrobenzimidazol-5-yl)-N-phenyl-imidazo[1,2-a]pyrazine-2-carboxamide], for which the IC50 was 501 nM.
To `O=C(NC1CC1)c1nc2c(N3CCOCC3)nccn2c1-c1ccc2[nH]c(=O)[nH]c2c1` [Example 146, N-Cyclopropyl-8-morpholino-3-(2-oxo-1,3-dihydrobenzimidazol-5-yl)imidazo[1,2-a]pyrazine-2-carboxamide] belongs 316 nM; to `O=C(Nc1ccncc1)c1nc2c(N3CCOCC3)nccn2c1-c1ccc2[nH]c(=O)[nH]c2c1` [Example 147, 8-Morpholino-3-(2-oxo-1,3-dihydrobenzimidazol-5-yl)-N-(4-pyridyl)imidazo[1,2-a]pyrazine-2-carboxamide], 501 nM; to `CCCNC(=O)c1nc2c(N3CCOCC3)nccn2c1-c1ccc(O)cc1` [Example 148, 3-(4-Hydroxyphenyl)-8-morpholino-N-propyl-imidazo[1,2-a]pyrazine-2-carboxamide], 631 nM.
For `O=C(c1ccc(F)cc1)c1nc2c(N3CCOCC3)nccn2c1-c1ccc(O)cc1` [Example 149, (4-Fluorophenyl)(3-(4-hydroxyphenyl)-8-morpholinoimidazo[1,2-a]pyrazin-2-yl)methanone] the value was 3.98 nM; for `O=C(c1ccccc1)c1nc2c(N3CCOCC3)nccn2c1-c1ccc(O)cc1` [Example 151, [3-(4-Hydroxyphenyl)-8-morpholino-imidazo[1,2-a]pyrazin-2-yl]-phenyl-methanone], 12.6 nM.
Take `CN(C)c1nccn2c(-c3ccc4c(c3)CC(=O)N4)c(C(=O)c3ccccc3)nc12` [Example 152, 5-[2-Benzoyl-8-(dimethylamino)imidazo[1,2-a]pyrazin-3-yl]indolin-2-one]: the IC50 is 3.98 nM.
For `O=C1Cc2cc(-c3c(C(=O)c4ccccc4)nc4c(N5CCOCC5)nccn34)ccc2N1` [Example 153, 5-(2-Benzoyl-8-morpholino-imidazo[1,2-a]pyrazin-3-yl)indolin-2-one] the value was 0.316 nM.
For `O=C1Cc2cc(-c3c(C(=O)c4ccccc4)nc4c(N5CCC(O)CC5)nccn34)ccc2N1` [Example 154, 5-[2-Benzoyl-8-(4-hydroxy-1-piperidyl)imidazo[1,2-a]pyrazin-3-yl]indolin-2-one], the IC50 was 1.58 nM.
As to `O=C1Cc2cc(-c3c(-c4ccc(F)cc4)nc4c(N5CCC(=NO)CC5)nccn34)ccc2N1` [Example 155, 5-[2-(4-Fluorophenyl)-8-(4-hydroxyimino-1-piperidyl)imidazo[1,2-a]pyrazin-3-yl]indolin-2-one], the IC50 is 79.4 nM.
For `O=C(c1ccccc1)c1nc2c(N3CCOCC3)nccn2c1-c1ccc2[nH]c(=O)oc2c1` [Example 156, 6-(2-Benzoyl-8-morpholino-imidazo[1,2-a]pyrazin-3-yl)-3H-1,3-benzoxazol-2-one] the value was 1.26 nM; for `O=C1Cc2cc(-c3c(C(=O)c4ccccc4)nc4c(N5CCS(=O)(=O)CC5)nccn34)ccc2N1` [Example 157, 5-[2-Benzoyl-8-(1,1-dioxo-1,4-thiazinan-4-yl)imidazo[1,2-a]pyrazin-3-yl]indolin-2-one], 2.51 nM; for `CC(=O)N1CCN(c2nccn3c(-c4ccc5c(c4)CC(=O)N5)c(C(=O)c4ccccc4)nc23)CC1` [Example 158, 5-[8-(4-Acetylpiperazin-1-yl)-2-benzoyl-imidazo[1,2-a]pyrazin-3-yl]indolin-2-one], 5.01 nM.
For `O=C(c1ccccc1)c1nc2c(N3CCOCC3)nccn2c1-c1ccc2c(c1)CS(=O)(=O)N2` [Example 159, [3-(2,2-Dioxo-1,3-dihydro-2,1-benzothiazol-5-yl)-8-morpholino-imidazo[1,2-a]pyrazin-2-yl]-phenyl-methanone], the IC50 was 7.94 nM.
For `O=C1Cc2cc(-c3c(-c4ccc(F)cc4)nc4c(N5CCOCC5)ncc(F)n34)ccc2N1` [Example 161, 5-(5-Fluoro-2-(4-fluorophenyl)-8-morpholinoimidazo[1,2-a]pyrazin-3-yl)indolin-2-one] the value was 6.31 nM; for `O=c1[nH]c2ccc(-c3c(-c4ccc(F)cc4)nc4c(N5CCOCC5)ncc(F)n34)cc2[nH]1` [Example 162, 5-[5-Fluoro-2-(4-fluorophenyl)-8-morpholino-imidazo[1,2-a]pyrazin-3-yl]-1,3-dihydrobenzimidazol-2-one], 3.98 nM.
To `O=C1Cc2cc(-c3c(-c4ccc(F)cc4)nc4c(N5CCOCC5)ncc(Cl)n34)ccc2N1` [Example 163, 5-[5-Chloro-2-(4-fluorophenyl)-8-morpholino-imidazo[1,2-a]pyrazin-3-yl]indolin-2-one] belongs 0.126 nM; to `O=C1Cc2cc(-c3c(-c4ccc(F)cc4)nn4c(N5CCOCC5)nccc34)ccc2N1` [Example 164, 5-[2-(4-Fluorophenyl)-7-morpholino-pyrazolo[1,5-c]pyrimidin-3-yl]indolin-2-one], 0.501 nM.
For `CC(C)(C)c1nn2cnccc2c1-c1ccc2c(c1)CC(=O)N2` [Example 165, 5-(2-tert-Butylpyrazolo[1,5-c]pyrimidin-3-yl)indolin-2-one] the value was over 10000 nM; for `CNc1nccn2c(-c3ccc4c(c3)CC(=O)N4)c(-c3ccc(F)cc3)nc12` [Example 167, 5-[2-(4-Fluorophenyl)-8-(methylamino)imidazo[1,2-a]pyrazin-3-yl]indolin-2-one], 25.1 nM; for `O=C1CN(c2nccc3c(-c4ccc5c(c4)CC(=O)N5)c(-c4ccc(F)cc4)nn23)CCN1` [Example 168, 5-[2-(4-Fluorophenyl)-7-(3-oxopiperazin-1-yl)pyrazolo[1,5-c]pyrimidin-3-yl]indolin-2-one], 1.26 nM.
With `CN(C)c1nccc2c(-c3ccc4c(c3)CC(=O)N4)c(-c3ccc(F)cc3)nn12` [Example 169, 5-[7-(Dimethylamino)-2-(4-fluorophenyl)pyrazolo[1,5-c]pyrimidin-3-yl]indolin-2-one], the IC50 is 1.58 nM.
For `O=C1Cc2cc(-c3c(-c4ccc(F)cc4)nn4c(N5CCS(=O)(=O)CC5)nccc34)ccc2N1` [Example 170, 5-[7-(1,1-Dioxo-1,4-thiazinan-4-yl)-2-(4-fluorophenyl)pyrazolo[1,5-c]pyrimidin-3-yl]indolin-2-one] the value was 0.631 nM.
For the molecule `CNc1nccc2c(-c3ccc4c(c3)CC(=O)N4)c(-c3ccc(F)cc3)nn12` [Example 171, 5-[2-(4-Fluorophenyl)-7-(methylamino)pyrazolo[1,5-c]pyrimidin-3-yl]indolin-2-one], the IC50 is 12.6 nM.
Consider `CC(=O)N1CCN(c2nccc3c(-c4ccc5c(c4)CC(=O)N5)c(-c4ccc(F)cc4)nn23)CC1` [Example 172, 5-[7-(4-Acetylpiperazin-1-yl)-2-(4-fluorophenyl)pyrazolo[1,5-c]pyrimidin-3-yl]indolin-2-one], for which the IC50 is 0.158 nM.
For the molecule `O=c1[nH]c2ccc(-c3c(-c4ccc(F)cc4)nn4c(N5CCOCC5)nccc34)cc2o1` [Example 173, 6-[2-(4-Fluorophenyl)-7-morpholino-pyrazolo[1,5-c]pyrimidin-3-yl]-3H-1,3-benzoxazol-2-one], the IC50 was 1.26 nM.
For `O=C1CCN(c2nccc3c(-c4ccc5c(c4)CC(=O)N5)c(-c4ccc(F)cc4)nn23)CC1` [Example 174, 5-[2-(4-Fluorophenyl)-7-(4-oxo-1-piperidyl)pyrazolo[1,5-c]pyrimidin-3-yl]indolin-2-one] the value was 0.0794 nM; for `O=C1Cc2cc(-c3c(-c4ccc(F)cc4)nn4cnccc34)ccc2N1` [Example 175, 5-[2-(4-Fluorophenyl)pyrazolo[1,5-c]pyrimidin-3-yl]indolin-2-one], 631 nM.
